# Reference: ChEMBL document CHEMBL1201862, “PubChem BioAssay data set” (2004)
#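 Values below derive from 48-hour exposures of cells grown in 96-well plates, with endpoints linearly interpolated between the two concentrations bracketing the appropriate inhibition level. GI50 marks 50% less growth.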 Calls of active or inactive are those of the source. Cut-off read from the data, not from the text of the source: active = GI50 up to about 1.1 µM and inactive = higher.
# Experiments:
# Assay in all cases: NCI-60 cell line screen, 48 h
# [1] = tested on: A549
# [2] = tested on: CCRF-CEM
# [3] = tested on: COLO 205
# [4] = tested on: HCC 2998
# [5] = tested on: HOP-92
# [6] = tested on: IGROV-1
# [7] = tested on: K562
# [8] = tested on: KM12
# [9] = tested on: MOLT-4
# [10] = tested on: NCI-H460
# [11] = tested on: OVCAR-4
# [12] = tested on: PC-3
# [13] = tested on: RXF 393
# [14] = tested on: SF-295
# [15] = tested on: SF-539
# [16] = tested on: SK-MEL-28
# [17] = tested on: SK-OV-3
# [18] = tested on: SW-620
# [19] = tested on: SK-MEL-2
# [20] = tested on: RPMI-8226
SMILES,GI50 [1],GI50 [2],GI50 [3],GI50 [4],GI50 [5],GI50 [6],GI50 [7],GI50 [8],GI50 [9],GI50 [10],GI50 [11],GI50 [12],GI50 [13],GI50 [14],GI50 [15],GI50 [16],GI50 [17],GI50 [18],GI50 [19],GI50 [20]
NC(=O)C(NC=O)c1ccccc1 (stereo not given),> 100 µM (inactive),> 100 µM (inactive),> 100 µM (inactive),> 100 µM (inactive),> 100 µM (inactive),> 100 µM (inactive),> 100 µM (inactive),> 100 µM (inactive),> 100 µM (inactive),> 100 µM (inactive),> 100 µM (inactive),> 100 µM (inactive),> 100 µM (inactive),> 100 µM (inactive),> 100 µM (inactive),> 100 µM (inactive),> 100 µM (inactive),> 100 µM (inactive),,
O=S(=O)(O)c1ccc2cc(/N=N/c3c(O)ccc4ccccc34)ccc2c1,> 100 µM (inactive),> 100 µM (inactive),> 100 µM (inactive),> 100 µM (inactive),> 100 µM (inactive),> 100 µM (inactive),> 100 µM (inactive),97.5 µM (inactive),> 100 µM (inactive),> 100 µM (inactive),> 100 µM (inactive),> 100 µM (inactive),> 100 µM (inactive),> 100 µM (inactive),> 100 µM (inactive),,> 100 µM (inactive),> 100 µM (inactive),> 100 µM (inactive),
C=C1[C@H](OCC(C)C)[C@@H](OCC(C)C)[C@@H](O)C(C)(C)/C=C/[C@H](C)C(=O)[C@@]2(O)C[C@H](C)[C@H](O)[C@@H]2[C@H]1OCC(C)C,,,2.13 µM (inactive),> 7.5 µM (inactive),> 7.5 µM (inactive),,0.538 µM (active),> 7.5 µM (inactive),0.676 µM (active),0.555 µM (active),> 7.5 µM (inactive),> 7.5 µM (inactive),> 7.5 µM (inactive),2.51 µM (inactive),2.83 µM (inactive),,> 7.5 µM (inactive),7.38 µM (inactive),> 7.5 µM (inactive),
Cc1ccc(C(C2C(=O)N(C)C(=O)N(C)C2=O)C(F)(F)C(=O)N(C)C)cc1 (stereo not given),> 100 µM (inactive),> 100 µM (inactive),> 100 µM (inactive),> 100 µM (inactive),> 100 µM (inactive),,,> 100 µM (inactive),,> 100 µM (inactive),> 100 µM (inactive),> 100 µM (inactive),> 100 µM (inactive),> 100 µM (inactive),45.3 µM (inactive),> 100 µM (inactive),> 100 µM (inactive),> 100 µM (inactive),> 100 µM (inactive),> 100 µM (inactive)
Cc1c(C)c(C)c(-n2c(=O)n(C)c(=O)n2-n2c(=O)n(C)c(=O)n2-c2c(C)c(C)c(C)c(C)c2C)c(C)c1C,> 100 µM (inactive),,> 100 µM (inactive),> 100 µM (inactive),> 100 µM (inactive),51.5 µM (inactive),> 100 µM (inactive),> 100 µM (inactive),40 µM (inactive),> 100 µM (inactive),> 100 µM (inactive),> 100 µM (inactive),> 100 µM (inactive),,> 100 µM (inactive),> 100 µM (inactive),> 100 µM (inactive),> 100 µM (inactive),> 100 µM (inactive),> 100 µM (inactive)
O=C1N/N=C\Nc2ccc(cc2)S(=O)(=O)c2ccc(cc2)/N=C\NNC1=O,> 100 µM (inactive),,> 100 µM (inactive),> 100 µM (inactive),> 100 µM (inactive),> 100 µM (inactive),> 100 µM (inactive),> 100 µM (inactive),> 100 µM (inactive),> 100 µM (inactive),> 100 µM (inactive),> 100 µM (inactive),> 100 µM (inactive),> 100 µM (inactive),> 100 µM (inactive),> 100 µM (inactive),> 100 µM (inactive),> 100 µM (inactive),> 100 µM (inactive),
OCCOCn1nncc1Cn1ncc2c(O)ncnc21,97.9 µM (inactive),,97.7 µM (inactive),> 100 µM (inactive),> 100 µM (inactive),> 100 µM (inactive),43.6 µM (inactive),32.6 µM (inactive),40 µM (inactive),49.4 µM (inactive),> 100 µM (inactive),55.1 µM (inactive),> 100 µM (inactive),> 100 µM (inactive),> 100 µM (inactive),> 100 µM (inactive),71.6 µM (inactive),31.8 µM (inactive),54.1 µM (inactive),
C=CCO/N=C/c1cc(/N=C(/S)c2ccoc2C)ccc1Cl,21 µM (inactive),33.3 µM (inactive),12.4 µM (inactive),10.5 µM (inactive),17.3 µM (inactive),13.2 µM (inactive),,7.93 µM (inactive),5.71 µM (inactive),,5.18 µM (inactive),11.4 µM (inactive),21.3 µM (inactive),9.48 µM (inactive),25.4 µM (inactive),37.8 µM (inactive),18 µM (inactive),33.8 µM (inactive),13.6 µM (inactive),3.27 µM (inactive)
